The values that follow come from US20150267232A1, “IN VIVO AND IN VITRO CARBENE INSERTION AND NITRENE TRANSFER REACTIONS CATALYZED BY HEME ENZYMES” (California Institute of Technology, priority 2012, published 2015).

Data set [1] is described as follows: P450/hemin reactions with azide 8 under anaerobic conditions (C—H amination). In kind it is biochemical. From the text:
Benzosultam 9 (a), arylsulfonamide 13 (c), alcohol 14 (b), alkene 15 and dimer 16 (d) are defined in FIG. 13. […] B1SYN (e.g., P450BM3 with 23 amino acid substitutions) catalyzed about 45 TTN for form the benzosultam.
Small-Scale Amination Reactions Under Anaerobic Conditions.
Reaction conditions were as described herein and analyzed by reverse-phase LC-MS (Agilent 1100 series LC-MSD), acetonitrile-water, using a C18 column (Peeke Scientific, Kromasil 100 5 μm, 50×4.6 mm ID). Acetonitrile gradient for 2-isopropylbenzenesulfonyl azide reactions: 10-22% (8 min), 22-60% (10 min), 60% (2 min), at 1.5 mL min^−1. Retention times: alcohol 10 (6.3 min), sulfonamide 2 (10.6 min), dimer 4 (12.3 min), azide 1 (17.6 min).

Data set [2] in a line: P450/hemin reactions with azide 5 under anaerobic conditions (C—H amination). The data set is classed as biochemical. From the text: Benzosultam 6, arylsulfonamide 7 (*), and dimer 12 (#) are defined in FIG. 10. […] For instance, B1SYN (e.g., P450BM3 with 23 amino acid substitutions) catalyzed over 30 TTN for form the benzosultam.
Small-Scale Amination Reactions Under Anaerobic Conditions. […]

Data set [3] in a line: Whole-cell C—H amination of azide 1. In kind it is cell-based, E. coli BL21(DE3). The settings on record: lyophilized cells.
Data set [4] is described as follows: Whole-cell C—H amination of azide 1. In kind it is cell-based, E. coli BL21(DE3). The note with it: intact E. coli cells. On the procedure:
Reaction conditions were as follows: 2 mM azide 1, 25 mM glucose, E. coli BL21(DE3) cells in M9-N minimal medium (OD600=30), 2.5% DMSO, oxygen depletion system (100 U ml^−1 glucose oxidase, 1400 U ml^−1 catalase) reacted for 24 hours under anaerobic conditions at 298 K. Yields determined by HPLC quantification.
(§1) Whole cell reactions used E. coli BL21(DE3) cells containing P450 or P411 catalysts, which were expressed and prepared as described elsewhere (Coelho, P. S. et al., Highly efficient carbene transfer to olefins catalyzed in vivo. Submitted (2013)). Following expression, cells were resuspended to an OD600 of 30 in M9 salts lacking NH4Cl (M9-N), and then degassed by sparging with argon in a sealed 6 mL crimp vial for at least 0.5 h. Separately, glucose (250 mM dissolved in 1×M9-N, 40 μL, or multiples thereof) was degassed by sparging with argon for at least five minutes. The oxygen quenching mixture was added to sealed 2 mL crimp vials containing stir bars and the headspace of the vials was purged with argon for five minutes at which time glucose, and then cells were added by syringe. Substrate (80 mM arylsulfonyl azide, 10 uL in DMSO) was added via syringe, and the reactions were stirred at room temperature for 24 h under positive argon pressure.
as §1, with “E.” for “Whole cell reactions used E.”, “catalysts” for “catalysts, which”, “Coelho,” for “(Coelho,”, “μL” for “uL”, “pressure. Reactions were quenched in a manner identical to reactions containing purified enzymes as described above. For chiral HPLC, the reactions were extracted and purified in an identical manner as for reactions that employed purified enzymes. Lyophilized intact cells containing sucrose as a cryoprotectant were prepared as described elsewhere (Coelho, P. S. et al., Highly efficient carbene transfer to olefins catalyzed in vivo. Submitted (2013)). The resulting cell powder, containing expressed ABC-CIS (26 mg) were added along with a stir bar to a 2 mL crimp vial and then sealed. The headspace of the vial was degassed, oxygen quenching system (40 μL) was added via syringe, followed by degassed glucose (250 mM, 40 μL), M9-N (310 μL), and finally substrate (80 mM 1, 10 μL). Lyophilized cell reactions were stirred for 24 h at room temperature, then quenched and analyzed as described above. […]” for “pressure.”
The preparative reaction was scaled up proportionally from small-scale reactions. E. coli BL21 cells containing ABC-CIS (OD600 30, 90 mL in M9-N) were sparged with argon for 45 minutes in a round bottom flask (250 mL) containing a stir bar. Separately, glucose solution (250 mM, 11.6 mL) was sparged with argon in a conical flask. The oxygen quenching mixture (10×, 11.6 mL) was degassed in a conical flask that was placed under high vacuum until slight foaming occurred (1-2 s) and then back-filled with argon; this sequence was repeated several times. Sparged glucose solution was then added to the anaerobic cell suspension via syringe, followed by the oxygen quenching system. Finally, substrate 1 (80 mM, 2.9 mL DMSO) was added dropwise via syringe, and the reaction was stirred for 24 h at room temperature. To quench the reaction, dilute HCl (3 M, 8.7 mL) and acetonitrile (125 mL) were added. […]

The mark [5] stands for this setting: cat. loading 1 mol %, reductant None.
Setting [6] is: OD600=30, 2 mM azide 1, 24 hours, anaerobic.

As to hemin, the “TTN arylsulfonamide 13” value in data set [1] (1 mol %, 2 mM NADPH) worked out at 1; in data set [1] (1 mol %, 2 mM Na2S2O4), 1; in data set [1] (1 mol %, 10 mM Na2S2O4), 23; in data set [1] (1 mol %, reductant None), 0; in data set [1] (10 mol %, 2 mM Na2S2O4), 0; in data set [1] (10 mol %, 10 mM Na2S2O4) it was 3. In addition, the “TTN benzosultam 9” value turned out to be 0 in data set [1] (1 mol %, 2 mM NADPH); 4 in data set [1] (1 mol %, 2 mM Na2S2O4); 61 in data set [1] (1 mol %, 10 mM Na2S2O4); 0 in data set [1] (1 mol %, reductant None); 0 in data set [1] (10 mol %, 2 mM Na2S2O4); 4 in data set [1] (10 mol %, 10 mM Na2S2O4). Moreover, the “arylsulfonamide 13 (% yield)” value in data set [1] (1 mol %, 2 mM NADPH) is recorded as “(1) %”; in data set [1] (1 mol %, 2 mM Na2S2O4), “(1) %”; in data set [1] (1 mol %, 10 mM Na2S2O4), “(23) %”; in data set [1] (10 mol %, 10 mM Na2S2O4) it was “(30) %”. The “benzosultam 9 (% yield)” value in data set [1] (1 mol %, 2 mM Na2S2O4) was “(4) %”; in data set [1] (1 mol %, 10 mM Na2S2O4) it was “(61) %”; in data set [1] (10 mol %, 10 mM Na2S2O4) it was “(40) %”. Besides, the “TTN arylsulfonamide 7” value in data set [2] (1 mol %, 2 mM NADPH) stood at 1; in data set [2] (1 mol %, 2 mM Na2S2O4), 5; in data set [2] (1 mol %, 10 mM Na2S2O4) it was 58; in data set [2] (10 mol %, 2 mM Na2S2O4), 1; in data set [2] (10 mol %, 10 mM Na2S2O4), 6; in data set [2] (setting [5]), 0. Moreover, the “TTN benzosultam 6” value in data set [2] (1 mol %, 2 mM NADPH) is listed as 0; in data set [2] (1 mol %, 2 mM Na2S2O4), 0; in data set [2] (1 mol %, 10 mM Na2S2O4), 0; in data set [2] (10 mol %, 2 mM Na2S2O4), 0; in data set [2] (10 mol %, 10 mM Na2S2O4) it was 0; in data set [2] (setting [5]), 0. Moreover, the “arylsulfonamide 7 (% yield)” value is on record as “(1) %” in data set [2] (1 mol %, 2 mM NADPH); “(5) %” in data set [2] (1 mol %, 2 mM Na2S2O4); “(58) %” in data set [2] (1 mol %, 10 mM Na2S2O4); “(10) %” in data set [2] (10 mol %, 2 mM Na2S2O4); “(60) %” in data set [2] (10 mol %, 10 mM Na2S2O4).

B1: ABC-CIS: BM3-CIS + C400S (protein, listed as Bacillus megaterium)
chain: TIKEMPQPKTFGELKNLPLLNTDKPVQALMKIADELGEIFKFEAPGRVTRYLSSQRLIKEACDESRFDKNLSQALKFARDFAGDGLVTSWTHEKNWKKAHNILLPSFSQQAMKGYHAMMVDIAVQLVQKWERLNADEHIEVSEDMTRLTLDTIGLCGFNYRFNSFYRDQPHPFIISMVRALDEVMNKLQRANPDDPAYDENKRQFQEDIKVMNDLVDKIIADRKARGEQSDDLLTQMLNGKDPETGEPLDDGNIRYQIITFLIAGHEATSGLLSFALYFLVKNPHVLQKVAEEAARVLVDPVPSYKQVKQLKYVGMVLNEALRLWPTAPAFSLYAKEDTVLGGEYPLEKGDEVMVLIPQLHRDKTVWGDDVEEFRPERFENPSAIPQHAFKPFGNGQRASIGQQFALHEATLVLGMMLKHFDFEDHTNYELDIKETLTLKPKGFVVKAKSKKIPLGGIPSPSTEQSAKKVRKKAENAHNTPLLVLYGSNMGTAEGTARDLADIAMSKGFAPQVATLDSHAGNLPREGAVLIVTASYNGHPPDNAKQFVDWLDQASADEVKGVRYSVFGCGDKNWATTYQKVPAFIDETLAAKGAENIADRGEADASDDFEGTYEEWREHMWSDVAAYFNLDIENSEDNKSTLSLQFVDSAADMPLAKMHGAFSTNVVASKELQQPGSARSTRHLEIELPKEASYQEGDHLGVIPRNYEGIVNRVTARFGLDASQQIRLEAEEEKLAHLPLAKTVSVEELLQYVELQDPVTRTQLRAMAAKTVCPPHKVELEALLEKQAYKEQVLAKRLTMLELLEKYPACEMKFSEFIALLPSIRPRYYSISSSPRVDEKQASITVSVVSGEAWSGYGEYKGIASNYLAELQEGDTITCFISTPQSEFTLPKDPETPLIMVGPGTGVAPFRGFVQARKQLKEQGQSLGEAHLYFGCRSPHEDYLYQEELENAQSEGIITLHTAFSRMPNQPKTYVQHVMEQDGKKLIELLDQGAHFYICGDGSQMAPAVEATLMKSYADVHQVSEADARLWLQQLEEKGRYAKDVWAG
modifications: cytochrome P450NADPH-P-450 reductase precursor, cytochrome P450 (BM3), CYP102A1
notes: BM3-CIS + C400S
Regarding B1, in data set [3], the “% ee” value was 61% and the TTN turned out to be 750. In data set [4] (setting [6]), the “Yield sulfonamide (%)” value was 50% and the “Yield sultam (%)” value worked out at 46%. Besides, the TTN in data set [4] (anaerobic, added glucose) stood at 680. Also, the “% ee” value in data set [4] ((S − R)/(S + R)) is given as 60%.
